Assay results reported in US8080555B2, “Purine derivatives and their use for treatment of autoimmune diseases” (Prometic Biosciences Inc., priority 2005, dated 2011).
Structures can show the parent of a compound that is named as a salt.

Tests used:
[1] = molecular target: T1, Fc portion of human IgG; experiment: Competitive protein A binding ELISA (inhibition of binding of protein A to human IgG); settings: HRP-human IgG, assay in PBS, read-out: IC50 (μM) Assay in PBS, concentration which inhibits 50% binding of protein A
T1 construct: fused on or other part: Horseradish peroxidase chemically conjugated to the IgG (detection label)
Description: As described above, this assay evaluates the ability of the exemplified compounds to mimic protein A. Such compounds can bind to the Fc portion of human IgG as ascertained by the inhibition of binding of protein A to human IgG. The competitive protein A binding ELISA assay was performed on a 96-well plate MAXISORP® surface to enhance the binding of protein A to the bottom of the plate. The wells were coated with 100 μL of protein A (0.8 μg) and incubated overnight at 4° C. After incubation, unbound protein A was removed by three washes with phosphate buffer saline (PBS). The plate was then incubated with 100 μL/well of a 2% solution of bovine serum albumin (BSA) for 1 h at 37° C. to block nonspecific protein binding. After incubation, the plate was washed three times with PBS. 50 μL of compound or protein A, diluted in PBS or PBS-20% DMSO at appropriate concentration, were added to the wells followed by addition of 50 μL of peroxidase-conjugated human IgG (HRP-IgG). After 1 h incubation at 37° C., the plate was washed three times with PBS to remove unbound HRP-IgG. Bound HRP-IgG was detected by incubation with 100 μL of 2,2′-azino-di[3-ethylbenzthiazoline sulfonate] diammonium salt crystals (ABTS) solution for 20 min in the dark at room temperature. The plate was then read at 405 nm on a BIO-TEK® EL 800 Universal Microplate Reader. Data was analyzed in a MICROSOFT® EXCEL® spreadsheet and the concentration of compound which inhibits 50% binding of protein A (IC50) was calculated using PRISM® software, as shown in Table 1.

[2] = system: LPS-induced TNFα production in J774A-1 cells; experiment: LPS-induced TNFα production in J774A-1 cells, TNFα by ELISA; assay type: cell-based; settings: Mus musculus, J774.A1, 24 h, read-out: IC50 (μM), concentration which inhibits 50% of TNFα production
Description: The effect of compounds on TNFα production was measured by ELISA using J774-1 cells stimulated by lipopolysaccharide (LPS). J774-1 cells were cultured in the presence or absence of LPS and compound. Cells were cultured at 37° C. for 24 h and thereafter the supernatants were collected for the determination of the concentration of TNFα by ELISA as recommended by the manufacturer (BD Biosciences). Data was analyzed in a MICROSOFT® EXCEL® spreadsheet and the concentration of compound which inhibits 50% of TNFα production (IC50) was calculated using PRISM® software, as shown in Table 2.

[3] = system: oxazolone-induced delayed-type hypersensitivity (DTH); experiment: Oxazolone-induced delayed-type hypersensitivity (DTH) in mice; assay type: in vivo; settings: for Inflammation/Ear thickness (mm), Challenge 1 / Inflammation/Ear thickness (mm), Challenge 2: intravenous, 50 mg/kg day 0, 1 and 2; for Inflammation/Ear thickness (mm), Challenge 1: first challenge day 3; for Inflammation/Ear thickness (mm), Challenge 2: second challenge day 10
Description: Compounds were tested for their ability to treat oxazolone-induced delayed-type hypersensitivity (DTH) in mice. On day 0, mice were sensitized with 100 μL of oxazolone in 5% acetone. On day 0, 1 and 2, mice were treated by intravenous administration of the vehicle (control) or methotrexate (MTX; positive control) or the compound at 50 mg/kg. Mice were challenged with an application of 50 μL of oxazolone on the surface of the right ear (first challenge, day 3; second challenge, day 10). Ear thickness was measured on day 4 to day 7, and on day 11 to 14. Redness and crust formation was also observed. Mice were sacrificed on day 14. TDTH (CD4) cells play an important role in regulating the intensity of the DTH response.
The effect of oral administration of compound 1 was determined following the protocol described above with the exception that compound 1 was orally administered at 50 or 150 mg/kg from day 0 to day 13. The positive control was hydrocortisone.

[4] = system: Freund's adjuvant-induced arthritis (AIA); experiment: Freund's adjuvant-induced arthritis (AIA) in female Lewis rats; assay type: in vivo
Description: AIA was induced in female Lewis rats by the injection of lyophilized Mycobacterium butyricum suspended in mineral oil into the footpad. The development of arthritis was monitored over a 3 week period post-adjuvant injection. Inflammation peaks at day 3 following the adjuvant administration. Immune activation appears around day 14. Compounds were injected i.v. day-3, -2 and -1 pre-adjuvant injection and at day 10, 11 and 12 post-adjuvant injection. Body weight was recorded. The arthritis index, which is a measure of inflammation (edema), redness, and stiffness of the articulations, was used to monitor the development of the disease. The degree of arthritis was determined by measuring two perpendicular diameters of the ankles in the mediolateral and dorsoventral planes using a caliper. Joint circumference in millimeters is then calculated using a geometric formula. Both the incidence and severity of the arthritis was evaluated. Incidence is defined as the number of rats with clinical evidence of joint inflammation during the study period.
The effect of oral administration of compound 1 was determined following the protocol described above with the exception that compound 1 was orally administered at 50 mg/kg from day-3 to day 19. The positive control was indomethacin.

Row | IC50 [1] [µM] | IC50 [2] [µM] | SMILES | further results
1 | 13 | 76 | Nc1ccc(CCn2cnc3c(Nc4cccc(N)c4)nc(N)nc32)cc1 [Compound 2, N6-(3-Amino-phenyl)-9-[2-(4-amino-phenyl)-ethyl]-9H-purine-2,6-diamine] | 
2 | 0.7 | > 50 | Nc1ccc(CCn2cnc3c(Nc4cccc(N)c4)nc(NCC4CC4)nc32)cc1 [Compound 3, N6-(3-Amino-phenyl)-9-[2-(4-amino-phenyl)-ethyl]-N2-cyclopropylmethyl-9H-purine-2,6-diamine] | 
3 | 4.8 | > 50 | Nc1ccc(CCn2cnc3c(Nc4cccc(N)c4)nc(NCCCCCCO)nc32)cc1 [Compound 4, 6-{6-(3-Amino-phenylamino)-9-[2-(4-amino-phenyl)-ethyl]-9H-purin-2-ylamino}-hexan-1-ol] | 
4 | 13 | 9.2 | Nc1ccc(CCn2cnc3c(Nc4cccc(N)c4)nc(NC4CC4)nc32)cc1 [Compound 5, N6-(3-Amino-phenyl)-9-[2-(4-amino-phenyl)-ethyl]-N2-cyclopropyl-9H-purine-2,6-diamine] | 
5 | 1.8 | 2.3 | CC(C)(C)Nc1nc(Nc2cccc(N)c2)c2ncn(CCc3ccc(N)cc3)c2n1 [Compound 6, N6-(3-Amino-phenyl)-9-[2-(4-amino-phenyl)-ethyl]-N2-tert-butyl-9H-purine-2,6-diamine] | 
6 | 0.2 | > 100 | Nc1ccc(Cn2cnc3c(Nc4cccc(N)c4)ncnc32)cc1 [Compound 7, N-[9-(4-Amino-benzyl)-9H-purin-6-yl]-benzene-1,3-diamine] | 
7 | 64 | 11 | Nc1ccc(CCn2cnc3c(Nc4cccc(N)c4)nc(NCCO)nc32)cc1 [Compound 8, 2-{6-(3-Amino-phenylamino)-9-[2-(4-amino-phenyl)-ethyl]-9H-purin-2-ylamino}-ethanol] | 
8 | 7.1 | > 50 | Nc1cccc(Nc2nc(F)nc3c2ncn3CCc2ccc(OCc3ccccc3)cc2)c1 [Compound 9, N-{9-[2-(4-Benzyloxy-phenyl)-ethyl]-2-fluoro-9H-purin-6-yl}-benzene-1,3-diamine] | 
9 | 6 | 5.3 | CC(C)(C)CNc1nc(Nc2cccc(N)c2)c2ncn(CCc3ccc(N)cc3)c2n1 [Compound 10, N6-(3-Amino-phenyl)-9-[2-(4-amino-phenyl)-ethyl]-N2-(2,2-dimethyl-propyl)-9H-purine-2,6-diamine] | 
10 | 22 | 11 | CC(C)CNc1nc(Nc2cccc(N)c2)c2ncn(CCc3ccc(N)cc3)c2n1 [Compound 11, N6-(3-Amino-phenyl)-9-[2-(4-amino-phenyl)-ethyl]-N2-isobutyl-9H-purine-2,6-diamine] | 
11 | 52 | > 50 | Nc1cccc(CCn2cnc3c(Nc4cccc(N)c4)ncnc32)c1 [Compound 12, N-{9-[2-(3-Amino-phenyl)-ethyl]-9H-purin-6-yl}-benzene-1,3-diamine] | 
12 | 0.2 | 6.2 | Nc1ccc(CCn2cnc3c(Nc4cccc(N)c4)nc(NC4CCCC4)nc32)cc1 [Compound 13, N6-(3-Amino-phenyl)-9-[2-(4-amino-phenyl)-ethyl]-N2-cyclopentyl-9H-purine-2,6-diamine] | 
13 | 0.6 | > 50 | Nc1cccc(Nc2ncnc3c2ncn3CCc2ccc(F)cc2)c1 [Compound 14, N-{9-[2-(4-Fluoro-phenyl)-ethyl]-9H-purin-6-yl}-benzene-1,3-diamine] | 
14 |  |  | CN(Cc1cnc2nc(N)nc(N)c2n1)c1ccc(C(=O)N[C@@H](CCC(=O)O)C(=O)O)cc1 [Methotrexate, methotrexate, reference compound] | Inflammation/Ear thickness (mm), Challenge 1 [3]: 0.17 ± 0.04 mm; Inflammation/Ear thickness (mm), Challenge 2 [3]: 0.46 ± 0.17 mm; reduction in the severity of arthritis (inflammatory index) ([4]; intravenous injection, FIG. 2): 20%
15 |  |  | COc1ccc2c(c1)c(CC(=O)O)c(C)n2C(=O)c1ccc(Cl)cc1 [indomethacin, reference compound] | reduction in the severity of arthritis (inflammatory index) ([4]; oral administration, FIG. 3): 10-40%

Row | SMILES | IC50 [1] [µM] | IC50 [2] [µM] | further results
16 | Nc1ccc(CCn2cnc3c(Nc4cccc(N)c4)ncnc32)cc1 [Compound 1, N-{9-[2-(4-aminophenyl)ethyl]-9H-purin-6-yl}benzene-1,3-diamine dihydrochloride] | 1 | > 100 | potency compared to methotrexate in DTH ([3]; intravenous administration): equipotent to methotrexate; redness, crust formation, and ear swelling ([3]; intravenous administration): reduces; reduction of the inflammation as seen by lower ear thickness ([3]; intravenous administration): significant reduction; Inflammation/Ear thickness (mm), Challenge 1 [3]: 0.19 ± 0.06 mm; Inflammation/Ear thickness (mm), Challenge 2 [3]: 0.56 ± 0.12 mm; reduction of the inflammation as seen by lower ear thickness ([3]; oral, 50 or 150 mg/kg day 0 to day 13, challenges 1 and 2, FIG. 1): significant reduction; reduction in the severity of arthritis (inflammatory index) ([4]; intravenous injection, FIG. 2): up to 25%; reduction in the severity of arthritis (inflammatory index) ([4]; oral administration, FIG. 3): 10-30%
